Data published in PubChem BioAssay (NCI).
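These data come from cells grown in 96-well plates and exposed to compound for 48 hours at five concentrations. GI50 marks 50% less growth. TGI marks complete inhibition of growth.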

Key:
Test in all cases: NCI tumour cell line growth inhibition, 48 h
[1] = system: SF-295 CNS
[2] = system: UO-31 renal
[3] = system: SK-OV-3 ovarian
[4] = system: MOLT-4 leukemia
[5] = system: HOP-92 NSCLC
[6] = system: K-562 leukemia
[7] = system: 786-0 renal
[8] = system: KM12 colon
[9] = system: SK-MEL-2 melanoma
[10] = system: MDA-MB-231 breast

| SMILES | GI50 [1] [µM] | TGI [1] [µM] | GI50 [2] [µM] | TGI [2] [µM] | GI50 [3] [µM] | TGI [3] [µM] | GI50 [4] [µM] | TGI [4] [µM] | GI50 [5] [µM] | TGI [5] [µM] | GI50 [6] [µM] | TGI [6] [µM] | GI50 [7] [µM] | TGI [7] [µM] | GI50 [8] [µM] | TGI [8] [µM] | GI50 [9] [µM] | TGI [9] [µM] | GI50 [10] [µM] | TGI [10] [µM] |
| --- | --- | --- | --- | --- | --- | --- | --- | --- | --- | --- | --- | --- | --- | --- | --- | --- | --- | --- | --- | --- |
| CCOC(=O)c1c(NC(=O)c2ccc(C(C)C)cc2)sc2c(CN(C)C)c(O)ccc12 | 1.86 | 3.45 | 1.46 | 2.82 | 3 | 9.22 | 2.05 | 4.92 | 1.44 | 3.1 | 0.535 | 3.28 | 1.79 | 3.36 | 1.83 | 3.45 | 2.14 | 4.59 | 1.95 | 3.83 |
| CC(=O)c1cccc(N(/C=C/C(=O)C(F)(F)F)CC(=O)c2ccc(Cl)cc2)c1 | > 100 | > 100 | > 100 | > 100 | > 100 | > 100 | > 100 | > 100 | > 100 | > 100 | > 100 | > 100 | > 100 | > 100 | > 100 | > 100 | > 100 | > 100 | > 100 | > 100 |
| CSc1ccc(C2=Nn3c(nnc3-c3ccc(F)c(Cl)c3)SC2)cc1 | 3.57 | 17.5 | 16.5 | 43.7 | 13.5 | 41.9 | 7.2 | > 100 | 4 | 14.8 | 2.28 | > 100 | 13.5 | 32 | 7.78 | 45.1 | 4.77 | 18 | 4.12 | 21 |
| CC1=C(C(=O)NC2CCCCC2)CC(C(=O)NC2CCCCC2)=C(C)N1 |  | > 100 |  | > 100 |  | > 100 |  | > 100 |  | > 100 |  | > 100 |  | > 100 |  | > 100 |  | > 100 |  | > 100 |
| CC1(C)N=C(N)N=C(N)N1c1ccc(CCc2ccccc2)c(Cl)c1 | 0.0529 | 11.3 | 8.12 | > 100 | 1.04 | 18.4 | 0.0648 | 13.5 | 1.14 | 9.51 | 0.0323 | 14.6 | 0.179 | 14.6 | 0.0994 | 7.61 | 1.01 | 17.5 | 1.09 | 19.9 |
| CC1(C)CCC(C)(C)c2cc(C(=O)Nc3ccc(C(=O)O)cc3)ccc21 |  | > 54.7 |  | 30.7 |  | > 61.1 |  | > 76.8 |  | > 100 |  | > 100 |  | > 56.5 |  | > 61.4 |  | 44.7 |  | > 95.2 |
| COC(=O)c1ccc2c(c1)C(NC(C)=O)CCc1cc(OC)c(OC)c(OC)c1-2 (stereo not given) |  | 3.03 |  | > 81 |  | 13.9 |  | 51.6 |  | 13.1 |  | 28.1 |  | 93.3 |  | 0.219 |  | 6.58 |  | > 100 |
| C[n+]1cc2c3c(ccc2c2ccc4cc5c(cc4c21)OCO5)OCO3 | 1.22 | 2.53 | 0.359 | 1.7 | 1.21 | 2.45 | 0.3 | 0.697 | 0.584 | 2.05 | 0.47 | 3.06 | 1.02 | 2.26 | 0.455 | 1.64 | 1.33 | 2.79 | 0.63 | 1.98 |
| Cc1ccc(C(=O)Nc2ccc(CN3CCN(C)CC3)c(C(F)(F)F)c2)cc1C#Cc1cnc(N)c2ccc(F)cc12 | 0.633 | 2.34 | 0.121 | 0.748 | 0.684 | 2.88 | 0.0921 | 0.671 | 0.18 | 0.944 | 0.00431 | 0.9 | 0.305 | 0.731 | 0.186 | 0.778 | 0.27 | 1.44 | 0.353 | 0.905 |
| C[C@]12CC[C@@H]3c4ccc(O)c([N+](=O)[O-])c4CC[C@H]3[C@@H]1CC[C@@H]2NS(=O)(=O)c1ccc(C(F)(F)F)cc1 | 2.96 | 10.6 | 1.5 | 3.19 | 2.65 | 7.36 | 2.08 | 5.99 | 1.12 | 2.62 | 2.02 | 5.84 | 2.05 | 4.35 | 1.76 | 3.51 | 2.1 | 4.18 | 1.49 | 2.93 |
| C#C[C@]1(O)CC[C@H]2[C@@H]3CC=C4c5nc(Nc6ccccn6)sc5CC[C@]4(C)[C@H]3CC[C@@]21C | 0.218 | 0.489 | 1.21 | 2.64 | 1.32 | 5.29 | 0.344 | 1.7 | 1.8 | 4.43 | 0.348 | 2.13 | 0.389 | 1.69 | 1.7 | 4.5 | 0.603 | 3.08 | 1 | 3.11 |
| COC1/C=C/OC2(C)Oc3c(C)c(O)c4c(c3C2=O)C(=O)C=C(NC(=O)/C(C)=C\C=C\C(C)C(OC=O)C(C)C(O)C(C)C(OC(C)=O)C1C)C4=O (stereo not given) |  | 51 |  | 29.6 |  | 56.7 |  | 10.8 |  | 28.8 |  | 20.7 |  | 20.8 |  | 45.9 |  | 36.6 |  | > 48.5 |
